Columns and labels:
Type in all cases: cell-based
SW480 colon cancer cells = test: Cell viability assay (CellTiter-Blue), SW480 colon cancer cells; conditions: Homo sapiens, 96 h, four days, CellTiter-Blue
Protocol: Representative compounds were screened using the following assay procedure to assess the effect on cell viability as described below.
Each compound was dissolved in DMSO as a 10 mM stock and used to prepare compound source plates. Serial dilution (1:3, 8-point dose-response curves from 10 μM to 0.0045 μM) and compound transfer was performed using the ECHO 550 (Labcyte, Sunnyvale, Calif.) into 96-well clear bottom, black-walled plates (Corning—Costar).
Approximately 2×10^3 SW480 colon cancer cells were seeded into each well and allowed to incubate in the presence or absence of compound for four days at 37° C./5% CO2. Eight replicates of DMSO-treated cells served as controls and cells treated with compound were performed in duplicate.
After incubation, 20 μL of CellTiter-Blue (Promega) was added to each well allowed to incubate for approximately 3 hours. This reagent was a buffered solution which contains resazurin, metabolically active cells were able to reduce rezarurin (blue) into resorufin (pink) which was highly fluorescent. This measured fluorescence was used as a readout for cell viability.
After incubation, the plates were read at Ex 560 nm Em 590 nm (Cytation 3, BioTek). Dose-response curves were generated and EC50 concentration values were calculated using non-linear regression curve fit in the GraphPad Prism (San Diego, Calif.) or Dotmatics' Studies Software (Bishops Stortford, UK). For EC50 of >10 μM, the percent inhibition at 10 μM is provided.

IL-6 (THP-1 cells) = test: IL-6 inhibition in LPS-stimulated THP-1 human monocyte cells (HTRF); conditions: LPS 500 ng/mL, 22 hours, IL6 HTRF
Protocol: Human monocyte cell line (THP-1 cells; Catalog # TIB-202, ATCC, Manassas, Va.) were cultured in Roswell Park Memorial Institute (RPMI) 1640 Medium (Catalog #21870-100, Buffalo, N.Y.) with 1% L-glutamine, 1% HEPES, 1% Sodium Pyruvate, 2% Sodium Bicarbonate supplemented with 100 units/mL penicillin, 50 μg/mL streptomycin, 2-mercaptoethanol (0.05 mM) [basal medium] and 10% fetal bovine serum (Catalog #16140089, Life Technologies, Carlsbad, Calif.) at 37° C. and 5% CO2.
THP-1 cells were cultured in basal media with 1% FBS for 24 hours before the start of the assay. Each compound was dissolved in DMSO as a 10 mM stock and used to prepare compound source plates. Serial dilution (1:3, 10-point dose-response curves starting from 10 μM) and compound transfer was performed using the ECHO 550 (Labcyte, Sunnyvale, Calif.) into 384-well white low volume assay plates (Greiner Bio-One) with appropriate DMSO backfill for a final DMSO concentration of 0.1%. THP-1 cells were plated at 5000 cells/well in the 384-well plates and incubated at 37° C. for 2 h. 500 ng/mL of LPS was added after 2 hours and cells were incubated for another 22 hours at 37° C. Plates were spun in a centrifuge for 1 minute at […] and a mixture of anti-IL6 XL665, and anti-IL6 Cryptate diluted in reconstitution buffer (Cisbio Inc.) was added to each well. Following incubation for 3 hrs at room temperature, Homogeneous Time-Resolved Fluorescence (HTRF) was measured using the Envision (Perkin Elmer) at 665 nm and […]. The ratio of fluorescence at 665 nm to 620 nm was used as a readout for IL6 quantification. All samples were processed in duplicate. Readings were normalized to DMSO treated cells and normalized activities were utilized for EC50 calculations using the dose-response log (inhibitor) vs. response-variable slope (four parameters) nonlinear regression feature available in GraphPad Prism 5.0 (or Dotmatics). For EC50 of >10 μM, the percent inhibition at 10 μM is provided.

[1] = system: Wnt activity (Sp5-Luc reporter, SW480 colon carcinoma cells); test: Wnt activity screening assay: Sp5-Luc reporter gene in SW480 colon carcinoma cells; conditions: Homo sapiens; for inhibition at 10 µM: given where EC50 >10 μM, read-out: percent inhibition at 10 μM; for EC50: overnight incubation, 10-point curve from 10 μM
Excerpt: The screening assay for Wnt activity is described as follows. Reporter cell lines can be generated by stably transducing cancer cell lines (e.g., colon cancer) or primary cells (e.g., IEC-6 intestinal cells) with a lentiviral construct that includes a Wnt-responsive promoter driving expression of the firefly luciferase gene.
SW480 colon carcinoma cells were transduced with a lentiviral vector expressing luciferase with a human Sp5 promoter consisting of a sequence of eight TCF/LEF binding sites. SW480 cells stably expressing the Sp5-Luc reporter gene and a hygromycin resistance gene were selected by treatment with 150 μg/mL of hygromycin for 7 days. These stably transduced SW480 cells were expanded in cell culture and used for all further screening activities. Each compound was dissolved in DMSO as a 10 mM stock and used to prepare compound source plates. Serial dilution (1:3, 10-point dose-response curves starting from 10 μM) and compound transfer was performed using the ECHO 550 (Labcyte, Sunnyvale, Calif.) into 384-well white solid bottom assay plates (Greiner Bio-One) with appropriate DMSO backfill for a final DMSO concentration of 0.1%. For Sp5-Luc reporter gene assays, the cells were plated at 4,000 cells/well in 384-well plates with medium containing 1% fetal bovine serum and incubated overnight at 37° C. and 5% CO2. Following incubation, 20 μl of BrightGlo luminescence reagent (Promega) was added to each well of the 384-well assay plates. The plates were placed on an orbital shaker for 2 min and then luminescence was quantified using the Envision (Perkin Elmer) plate reader. Readings were normalized to DMSO only treated cells, and normalized activities were utilized for EC50 calculations using the dose-response log (inhibitor) vs. response-variable slope (four parameters) nonlinear regression feature available in GraphPad Prism 5.0 (or Dotmatics). For EC50 of >10 μM, the percent inhibition at 10 μM is provided.

[2] = system: primary human fibroblasts derived from IPF patients (LL29 cells) treated with TGF-β1; test: Inhibition of the fibrotic process: αSMA staining in TGF-β1 treated primary human fibroblasts from IPF patients (LL29 cells); conditions: Fibroblast, 96 h, TGF-β1 20 ng/mL, 4 days, % αSMA positive cells
Excerpt: Representative compounds were screened using primary human fibroblasts (derived from IPF patients) treated with TGF-β1 to determine their ability to inhibit the fibrotic process.
Primary human fibroblasts derived from IPF patients (LL29 cells) [^1Xiaoqiu Liu, et. al., “Fibrotic Lung Fibroblasts Show Blunted Inhibition by cAMP Due to Deficient cAMP Response Element-Binding Protein Phosphorylation”, Journal of Pharmacology and Experimental Therapeutics (2005), 315(2), 678-687; ^2Watts, K. L., et. al., “RhoA signaling modulates cyclin D1 expression in human lung fibroblasts; implications for idiopathic pulmonary fibrosis”, Respiratory Research (2006), 7(1), 88] were obtained from American Type Culture Collection (ATCC) and expanded in F12 medium supplemented with 15% Fetal Bovine Serum and Penicillin/Streptomycin.
Each compound was dissolved in DMSO as a 10 mM stock and used to prepare compound source plates. Serial dilution (1:2, 11-point dose-response curves from 10 μM to 1.87 nM) and compound transfer was performed using the ECHO 550 (Labcyte, Sunnyvale, Calif.) into 384-well clear bottom assay plates (Greiner Bio-One) with appropriate DMSO backfill for a final DMSO concentration of 0.1%. LL29 cells are plated at 1,500 cells/well in 80 μL/well F12 medium supplemented with 1% Fetal Bovine Serum. One hour after addition of the cells, TGF-β1 (Peprotech; 20 ng/mL) was added to the plates to induce fibrosis (ref. 1 and 2 above). Wells treated with TGF-β1 and containing DMSO were used as controls. Cells were incubated at 37° C. and 5% CO2 for 4 days. Following incubation for 4 days, SYTOX green nucleic acid stain (Life Technologies [Thermo Fisher Scientific]) was added to the wells at a final concentration of 1 μM and incubated at room temperature for 30 min. Cells were then fixed using 4% formaldehyde (Electron Microscopy Sciences), washed 3 times with PBS followed by blocking and permeabilization using 3% Bovine Serum Albumin (BSA; Sigma) and 0.3% Triton X-100 (Sigma) in PBS. Cells were then stained with antibody specific to α-smooth muscle actin (αSMA; Abcam) (ref. 1 and 2 above) in 3% Bovine Serum Albumin (BSA; Sigma) and 0.3% Triton X-100 (Sigma) in PBS, and incubated overnight at 4° C. Cells were then washed 3 times with PBS, followed by incubation with Alexa Flor-647 conjugated secondary antibody (Life Technologies [Thermo Fisher Scientific]) and DAPI at room temperature for 1 hour. Cells were then washed 3 times with PBS and plates were sealed for imaging. αSMA staining was imaged by excitation at 630 nm and emission at 665 nm and quantified using the Compartmental Analysis program on the CellInsight CX5 (Thermo Scientific). Dead or apoptotic cells were excluded from analysis based on positive SYTOX green staining. % of total cells positive for αSMA were counted in each well and normalized to the average of 11 wells treated with TGF-β1 on the same plate using Dotmatics' Studies Software. The normalized averages (fold change over untreated) of 3 replicate wells for each compound concentration were used to create dose-responses curves and EC50 values were calculated using non-linear regression curve fit in the Dotmatics' Studies Software. For EC50 of >10 μM, the percent inhibition at 10 μM is provided.

CN1CCN(c2cccc3[nH]c(-c4n[nH]c5ccc(-c6cncc(CN7CCCCC7)c6)nc45)cc23)CC1 [Compound 239, 3-(4-(4-Methylpiperazin-1l-yl)-1H-indol-2-yl)-5-(5-(piperidin-1-ylmethyl)pyridin-3-yl)-1H-pyrazolo[4,3-b]pyridine]
EC50 (SW480 colon cancer cells): 9360 nM | EC50 (IL-6 (THP-1 cells)): 1190 nM | inhibition at 10 µM [1]: 5% | EC50 [1]: > 10000 nM | EC50 [2]: 4980 nM

CN1CCN(c2cccc3[nH]c(-c4n[nH]c5ccc(-c6cncc(NC(=O)CC(C)(C)C)c6)nc45)cc23)CC1 [Compound 240, 3,3-Dimethyl-N-(5-(3-(4-(4-methylpiperazin-1-yl)-1H-indol-2-yl)-1H-pyrazolo[4,3-b]pyridin-5-yl)pyridin-3-yl)butanamide]
EC50 (SW480 colon cancer cells): 1840 nM | EC50 (IL-6 (THP-1 cells)): 244 nM | EC50 [1]: 2980 nM | EC50 [2]: 1750 nM

Cc1ccncc1-c1ccc2[nH]nc(-c3cc4ccccc4[nH]3)c2n1 [Compound 257, 3-(1H-Indol-2-yl)-5-(4-methylpyridin-3-yl)-1H-pyrazolo[4,3-b]pyridine]
EC50 (SW480 colon cancer cells): 8060 nM | EC50 (IL-6 (THP-1 cells)): 17 nM | EC50 [1]: 3690 nM | EC50 [2]: 4640 nM

O=C(Nc1cncc(-c2ccc3[nH]nc(-c4cc5c(-c6cccs6)cccc5[nH]4)c3n2)c1)c1ccccc1 [Compound 347, N-(5-(3-(4-(Thiophen-2-yl)-1H-indol-2-yl)-1H-pyrazolo[4,3-b]pyridin-5-yl)pyridin-3-yl)benzamide]
EC50 (SW480 colon cancer cells): 6080 nM | EC50 (IL-6 (THP-1 cells)): 1070 nM | inhibition at 10 µM [1]: 35.8% | EC50 [1]: > 10000 nM | EC50 [2]: 446 nM

CN(C)Cc1cncc(-c2ccc3[nH]nc(-c4cc5c(-c6cccs6)cccc5[nH]4)c3n2)c1 [Compound 349, N,N-Dimethyl-1-(5-(3-(4-(thiophen-2-yl)-1H-indol-2-yl)-1H-pyrazolo[4,3-b]pyridin-5-yl)pyridin-3-yl)methanamine]
EC50 (SW480 colon cancer cells): 2840 nM | EC50 (IL-6 (THP-1 cells)): 137 nM | EC50 [1]: 8280 nM | EC50 [2]: 1270 nM

c1csc(-c2cccc3[nH]c(-c4n[nH]c5ccc(-c6ccncc6)nc45)cc23)c1 [Compound 354, 5-(Pyridin-4-yl)-3-(4-(thiophen-2-yl)-1H-indol-2-yl)-1H-pyrazolo[4,3-b] pyridine]
EC50 (SW480 colon cancer cells): 4120 nM | EC50 (IL-6 (THP-1 cells)): 1420 nM | EC50 [1]: 3600 nM | EC50 [2]: 1460 nM

CN(C)CCNc1cc(F)cc(-c2cccc3[nH]c(-c4n[nH]c5ccc(-c6cncc(NC(=O)Cc7ccccc7)c6)nc45)cc23)c1 [Compound 458, N-(5-(3-(4-(3-((2-(Dimethylamino)ethyl)amino)-5-fluorophenyl)-1H-indol-2-yl)-1H-pyrazolo[4,3-b]pyridin-5-yl)pyridin-3-yl)-2-phenylacetamide]
EC50 (SW480 colon cancer cells): 970 nM | EC50 (IL-6 (THP-1 cells)): 1460 nM | EC50 [1]: 1030 nM | EC50 [2]: 1860 nM

CC(C)(C)CC(=O)Nc1cncc(-c2ccc3[nH]nc(-c4cc5c(-c6cc(F)cc(CNS(C)(=O)=O)c6)cccc5[nH]4)c3n2)c1 [Compound 492, N-(5-(3-(4-(3-Fluoro-5-(methylsulfonamidomethyl)phenyl)-1H-indol-2-yl)-1H-pyrazolo[4,3-b]pyridin-5-yl)pyridin-3-yl)-3,3-dimethylbutanamide]
EC50 (SW480 colon cancer cells): 1060 nM | EC50 (IL-6 (THP-1 cells)): 261 nM | EC50 [1]: 292 nM | EC50 [2]: 345 nM

CS(=O)(=O)NCc1cc(F)cc(-c2cccc3[nH]c(-c4n[nH]c5ccc(-c6cncc(NC(=O)C7CCCC7)c6)nc45)cc23)c1 [Compound 498, N-(5-(3-(4-(3-Fluoro-5-(methylsulfonamidomethyl)phenyl)-1H-indol-2-yl)-1H-pyrazolo[4,3-b]pyridin-5-yl)pyridin-3-yl)cyclopentanecarboxamide]
EC50 (SW480 colon cancer cells): 827 nM | EC50 (IL-6 (THP-1 cells)): 106 nM | EC50 [1]: 306 nM | EC50 [2]: 403 nM

CS(=O)(=O)NCc1cc(F)cc(-c2cccc3[nH]c(-c4n[nH]c5ccc(-c6cncc(CN7CCC(F)(F)C7)c6)nc45)cc23)c1 [Compound 502, N-(3-(2-(5-(5-((3,3-Difluoropyrrolidin-1-yl)methyl)pyridin-3-yl)-1H-pyrazolo[4,3-b]pyridin-3-yl)-1H-indol-4-yl)-5-fluorobenzyl)methanesulfonamide]
EC50 (SW480 colon cancer cells): 693 nM | EC50 (IL-6 (THP-1 cells)): 298 nM | EC50 [1]: 196 nM | EC50 [2]: 148 nM

From patent US10226453B2, “3-(1H-indol-2-yl)-1H-pyrazolo[4,3-B]pyridines and therapeutic uses thereof” (Samumed, LLC, priority 2015, dated 2019)
